Article PMC9537541, “Synthesis and anticancer activity of new benzensulfonamides incorporating s-triazines as cyclic linkers for inhibition of carbonic anhydrase IX” (Scientific Reports, 2022)

Legend:
[1] = target: T1, hCA I (Homo sapiens, UniProt P00915); assay: stopped-flow CO2 hydrase assay, hCA I; type: biochemical; details: stopped flow technique, mean from 3 different assays
T1 construct: made in house
Protocol: (§1) Target compounds of series (A) and (B) were screened as inhibitors concerning the physiologically relevant hCAs; cytosolic isoforms (hCA I and II) in addition to the transmembrane tumor related isoforms (hCA IX and XII) via a stopped-flow assay of carbonic anhydrase catalyzed CO2 hydration. Acetazolamide (AAZ), CA I drug, was also incorporated in the assays as a standard drug. […] Four CA isoforms inhibition activity was measured by assaying CA catalyzed CO2 hydration via an applied photophysics stopped-flow instrument. PRISM 3 and the Cheng-prusoff equation were used to determine the inhibition constant by non-linear least square methods as reported, and represent the mean from three different determination at least. All tested carbonic anhydrase isoforms were recombinant proteins prepared in lab as described earlier,[57].

[2] = target: T2, hCA II (Homo sapiens, UniProt P00918); assay: stopped-flow CO2 hydrase assay, hCA II; type: biochemical; details: stopped flow technique, mean from 3 different assays
T2 construct: made in house
Protocol: as §1

[3] = target: T3, hCA IX (Homo sapiens, UniProt Q16790); assay: stopped-flow CO2 hydrase assay, hCA IX; type: biochemical; details: for Ki: stopped flow technique, mean from 3 different assays; for Selectivity index (SI) I/IX: hCA IX over off-target hCA I; for Selectivity index (SI) II/IX: hCA IX over off-target hCA II
T3 construct: made in house
Protocol: as §1

[4] = target: T4, hCA XII (Homo sapiens, UniProt O43570); assay: stopped-flow CO2 hydrase assay, hCA XII; type: biochemical; details: for Ki: stopped flow technique, mean from 3 different assays; for Selectivity index (SI) I/XII: hCA XII over off-target hCA I; for Selectivity index (SI) II/XII: hCA XII over off-target hCA II
T4 construct: made in house
Protocol: as §1

[5] = tested on: CNS cancer (SNB-75); assay: NCI single dose SRB screen, SNB-75; type: cell-based; details: Homo sapiens, SNB-75, 48 h, 10^−5 M single dose, read-out: GI% CNS cancer (SNB-75)
Protocol: (§2) Target compounds in series (A) and (B), were submitted to the National Cancer Institute (NCI) Developmental Therapeutic Program (www.dtp.nci.nih.gov), where they have been assessed, in vitro for their anticancer activity. Two series (A) and (B), were screened in a single dose (10 µM) versus full panel composed of 60 cancer cell lines, in accordance with protocol of drug evaluation branch, NCI, Bethesda. Sulforhodamine B (SRB) colorimetric assay was used to determine cell growth and viability,[40].
(§3) Protocol of Drug Evaluation Branch, NCI, Bethesda, was adopted in the antitumor assay. Assessment of cell growth and viability was carried out utilizing SRB assay and 48 h drug exposure protocol as previously reported,[40].

[6] = tested on: Renal cancer (UO-31); assay: NCI single dose SRB screen, UO-31; type: cell-based; details: Homo sapiens, UO-31, 48 h, 10^−5 M single dose, read-out: GI% Renal cancer (UO-31)
Protocol: as §2, §3

[7] = tested on: Breast cancer (MDA-MB-468); assay: NCI single dose SRB screen, MDA-MB-468; type: cell-based; details: Homo sapiens, MDA-MB-468, 48 h, 10^−5 M single dose, 48 h, SRB; read-out: GI% Breast cancer (MDA-MB-468)
Protocol: as §2, §3

[8] = tested on: Leukemia (SR); assay: NCI single dose SRB screen, SR; type: cell-based; details: 48 h, 10^−5 M single dose, read-out: GI% Leukemia (SR)
Protocol: as §2, §3

[9] = tested on: leukemia (CCRF-CM); assay: anti-proliferative activity under hypoxic condition (MTT), CCRF-CM; type: cell-based; details: hypoxic conditions (1%O2, 5% CO2 and 94% N2), mean ± S.D. of three experiments
Protocol: All cells were incubated in hypoxic atmosphere (1% O2, 5% CO2, and 94%N2) and maintained at 37 °C. All procedures to determine compounds cytotoxicity were accomplished using MTT assay as reported,[59],[60].

T1 sequence (P00915 whole entry): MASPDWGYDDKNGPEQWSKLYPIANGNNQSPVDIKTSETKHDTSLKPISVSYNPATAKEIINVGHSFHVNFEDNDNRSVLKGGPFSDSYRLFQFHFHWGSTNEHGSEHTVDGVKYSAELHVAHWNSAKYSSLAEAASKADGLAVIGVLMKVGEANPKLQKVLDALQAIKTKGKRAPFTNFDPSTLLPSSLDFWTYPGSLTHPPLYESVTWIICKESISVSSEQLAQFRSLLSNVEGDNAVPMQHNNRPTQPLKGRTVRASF
T4 sequence (O43570 25-354): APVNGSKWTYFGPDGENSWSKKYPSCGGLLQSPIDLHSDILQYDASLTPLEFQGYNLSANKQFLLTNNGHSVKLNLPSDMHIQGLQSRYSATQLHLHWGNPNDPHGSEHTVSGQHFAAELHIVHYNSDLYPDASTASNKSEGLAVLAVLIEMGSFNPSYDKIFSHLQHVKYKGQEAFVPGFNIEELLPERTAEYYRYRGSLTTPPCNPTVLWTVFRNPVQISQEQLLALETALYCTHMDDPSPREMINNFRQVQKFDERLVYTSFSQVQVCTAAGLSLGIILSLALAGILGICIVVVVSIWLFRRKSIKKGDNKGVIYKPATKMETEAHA

Compound | Ki [1] [nM] | Ki [2] [nM] | Ki [3] [nM] | Ki [4] [nM] | inhibition at 10 µM [5] [%] | inhibition at 10 µM [6] [%] | inhibition at 10 µM [7] [%] | inhibition at 10 µM [8] [%] | melting point [°C] | Selectivity index (SI) I/IX [3] | Selectivity index (SI) II/IX [3] | Selectivity index (SI) I/XII [4] | Selectivity index (SI) II/XII [4] | IC50 [9] [nM]
CC1(C)N=C(N)N=C(N)N1c1ccc(S(=O)(=O)Nc2ccccn2)cc1.Cl [Compound 5b, 4-(4,6-Diamino-2,2-dimethyl-1,2-dihydro-1,3,5-triazin-1-yl)-N-(pyridin-2-yl)benzene-1-sulfonamide HCl] | > 10000 | > 10000 | > 10000 | > 10000 | 28 | 11 | ≤ 10 | ≤ 10 | 209 to 211 | – | – | – | – | –
N#CCc1nc(N)nc(Nc2ccc(S(N)(=O)=O)cc2)n1 [Compound 10, 4-{[4-amino-6-(cyanomethyl)-1,3,5-triazin-2-yl]amino}benzene-1-sulfonamide] | 72.3 | 49.2 | 2450 | 7630 | 33 | ≤ 10 | ≤ 10 | ≤ 10 | 284 to 286 | 0.03 | 0.02 | 0.01 | 0.006 | –
N#C/C(=C\c1ccccc1)c1nc(N)nc(Nc2ccc(S(N)(=O)=O)cc2)n1 [Compound 12a, 4-({4-Amino-6-[(1E)-1-cyano-2-phenyleth-1-en-1-yl]-1,3,5-triazin-2-yl}amino)benzene-1-sulfonamide] | 3600 | 436 | 1540 | 8060 | ≤ 10 | ≤ 10 | ≤ 10 | ≤ 10 | 174 to 176 | 2.3 | 0.3 | 0.4 | 0.05 | –
CC1CCC2(CC1)N=C(N)N=C(Nc1ccc(S(N)(=O)=O)cc1)N2 (stereo not drawn) [Compound 8c, 4-({4-Amino-9-methyl-1,3,5-triazaspiro[5.5]undeca-2,4-dien-2-yl}amino)benzene-1-sulfonamide] | 408 | 591 | 1220 | 936 | ≤ 10 | ≤ 10 | ≤ 10 | ≤ 10 | 264 to 266 | 0.3 | 0.5 | 0.4 | 0.6 | –
CN[C@@H]1C[C@H]2O[C@@](C)([C@@H]1OC)n1c3ccccc3c3c4c(c5c6ccccc6n2c5c31)C(=O)NC4 [Staurosporine, reference compound] | – | – | – | – | – | – | – | – | – | – | – | – | – | 2170 ± 110
N#C/C(=C\c1ccc2c(c1)OCO2)c1nc(N)nc(Nc2ccc(S(N)(=O)=O)cc2)n1 [Compound 12e, 4-({4-Amino-6-[(1E)-2-(2H-1,3-benzodioxol-5-yl)-1-cyanoeth-1-en-1-yl]-1,3,5-triazin-2-yl}amino)benzene-1-sulfonamide] | 4050 | 893 | 971 | 8540 | ≤ 10 | 13 | 27 | 11 | 269 to 271 | 4 | 1 | 0.5 | 0.1 | –
N#C/C(=C\c1ccc(F)cc1)c1nc(N)nc(Nc2ccc(S(N)(=O)=O)cc2)n1 [Compound 12f., 4-({4-Amino-6-[(1E)-1-cyano-2-(4-fluorophenyl)eth-1-en-1-yl]-1,3,5-triazin-2-yl}amino)benzene-1-sulfonamide] | 590 | 493 | 195 | 4200 | 10 | 15 | 15 | 11 | 234 to 236 | 3 | 2.5 | 0.1 | 0.1 | –
